This is an account of results in US9884031B2, “Use of HDAC inhibitors for treatment of cardiac rhythm disorders” (THE TRUSTEES OF THE UNIVERSITY OF PENNSYLVANIA, priority 2007, dated 2018).

One experiment relates to activated TGF-β1. Description: Western blot of atrium: activated TGF-β1. The class given is in vivo, mouse. To be noted: TSA-Hop^Tg mice relative to Hop^Tg, FIG. 2E. The protocol: (§1) Adult mouse atrium and ventricle were dissected and homogenized in buffer containing 1% Igepal surfactant, 0.5% deoxycholate sodium, 2% SDS, 5 mmol EDTA (pH=7.4), 1% protease inhibitor cocktail tablet (Roche) with and without phosphatase inhibitor cocktail (Sigma-Aldrich). Samples were cleared of debris by centrifugation at 5000 g for 10 min. and the protein concentration was determined using a BCA protein assay kit (Pierce). Protein samples were run on a 4-12% gradient pre-cast SDS-PAGE gel (Invitrogen), and after electrophoresis were transferred onto PVDF membranes (Millipore) using 0.1% acetic acid/10% methanol as a transfer buffer. Membranes were incubated with primary antibodies in 5% milk and PBS overnight at 4° C. and then washed for 5 min, 4 times with TBS-T solution. […] Results were visualized by enhanced chemiluminescence using a commercially available kit (Western Breeze, Invitrogen) and data were recorded on BioMax-MR film (Kodak, Rochester, N.Y.). Densitometry was determined using the Image-J software package (National Institutes of Health). […]
On the technique in general: In western blotting, separated proteins are transferred to a membrane and probed.

The subject of another experiment is 3 week-old HopX^Tg mice. Particulars: cited from earlier work.
The test system of another experiment is histone acetylation. To be noted: TSA 0.6 mg/kg/day, previous studies; cited from earlier work.
Another experiment has as its system phospho-p38-MAPK. Description: Western blot of atrium: phospho-p38-MAPK. The class given is in vivo, mouse. Particulars: between Hop^Tg, TSA-Hop^Tg or control mice, FIG. 2C. The protocol: as §1
In experiment [1] the test system is Hop transgenic mice (Hop^Tg). Description: In-vivo electrophysiology study: inducible arrhythmias by programmed electrical stimulation. Further details: species or system mouse. The method, then:
An in-vivo electrophysiology study was performed in each mouse to assess atrial and ventricular conduction, refractoriness, and arrhythmia inducibility. Surface ECG recordings and complete in vivo electrophysiological studies (EPS) were obtained from Hop^Tg mice (14-18 weeks old), age-matched non-transgenic littermates and TSA-treated Hop^Tg mice. Each mouse was anesthetized with pentobarbital ([…] IP), and multi-lead ECGs were obtained using 26-gauge subcutaneous electrodes. Temperature was maintained at 32-33° C. A jugular vein cutdown was performed and an octapolar 2-French electrode catheter (CIBer mouse-EP; NuMED, Inc) placed in the right atrium and ventricle under electrogram guidance to confirm catheter position. A programmed digital stimulator (DTU-215A, Bloom Associates Ltd) was used to deliver electrical impulses at approximately twice diastolic threshold. […] ECG channels were filtered from 0.5 to 250 Hz and intracardiac electrograms were filtered from 5 to 400 Hz. ECG intervals were measured by two independent observers blinded to the animal's genotype.
The PR, QRS, RR, and QT intervals were measured in 6 surface-limb ECG leads by 2 independent observers, who were both blinded to the animals' genotype. Intracardiac recordings were obtained during identical pacing and programmed electrical stimulation protocols for all mice by experienced investigators.
Trichostatin A 0.6 mg/kg daily in a volume of 0.2 mL was given by intraperitoneal injection for 14 consecutive days prior to cardiac electrical stimulation in Hop transgenic mice (Hop^Tg) compared with wild-type controls (WT).
Ventricular programmed electrical stimulation induced similar numbers and durations of ventricular tachycardia in 3 of 11 Hop^Tg mice compared to 4 of 12 control mice (P=NS).

In experiment [2] the test system is Hop transgenic mice (Hop^Tg). The experiment is described as follows: Masson's trichrome staining for collagen as marker of fibrosis. The class given is in vivo, mouse. To be noted: FIG. 1; for Atrial fibrosis (in words): TSA-treated Hop transgenic mice vs untreated. The protocol: Hearts were excised from, washed in 37° C. Dulbecco's 1×PBS, arrested in 50 mmol/L KCl, and fixed in 4% formalin. Fixed hearts were cut transversely and sectioned serially from ventricular apex to base. Two sections (5 μm each) were retained at the beginning of each 50-μm step. Sections were stained with Masson's trichrome stain for collagen as a marker of fibrosis. Quantification of the proportion of fibrosis in each heart was then performed with scientific imaging software (Image-J, National Institutes of Health)) and high-resolution serial scanning technique. Histological sections from the entire left ventricle and both atrium were used for analysis from three different hearts.
Trichostatin A 0.6 mg/kg daily in a volume of 0.2 mL was given by intraperitoneal injection for 14 consecutive days upon inducible atrial arrhythmias and atrial structurally remodeling in an engineered mouse model with left ventricular hypertrophy and inducible atrial fibrillation. Transgenic mice over-expressing the homeodomain-only protein (Hop^Tg), which promotes cardiac hypertrophy and interstitial fibrosis, were divided into three groups: control, Hop^Tg mice and Hop^Tg mice treated with trichostatin A.

A further experiment has as its system phospho-ERK1/2. The experiment is described as follows: Western blot of atrium: phospho-ERK1/2. The experiment is classed as in vivo, mouse. Particulars: TSA-Hop^Tg mice relative to Hop^Tg, FIG. 2D. The method, then: as §1
Setting [3] is: TSA 0.6 mg/kg daily IP 14 days, Hop^Tg mice.
Where [4] appears, read: TSA 0.6 mg/kg daily IP 14 days, Hop^Tg mice, n = 10.
Setting [5] is: TSA 0.6 mg/kg daily IP 14 days, Hop^Tg mice, n = 10, mean±SD.

Molecules are shown by their SMILES.

Regarding `CC(/C=C/C(=O)NO)=C\[C@@H](C)C(=O)c1ccc(N(C)C)cc1` [TSA, Trichostatin A], in the experiment on activated TGF-β1, the “Activated TGF-β1 protein expression in atrium” value is “further decreased”. For the same compound, the “Cardiac hypertrophy, in words” value with 3 week-old HopX^Tg mice is “partially reduces”. For the same compound, the “Histone acetylation in the heart, in words” value in the experiment on histone acetylation was “does augment histone acetylation”. Moreover, the “Phospho-p38-MAPK protein expression in atrium” value in the experiment on phospho-p38-MAPK is listed as “not different”. Further, in experiment [1] (setting [3]), the “Mice with AT” value is 2/15 and the “Mice with VT” value is on record as 2/15. Also, in experiment [1] (setting [4]), the “Episodes AT (atrial tachycardia)” value came out at 5 and the “Episodes VT (ventricular tachycardia)” value is listed as 4. Moreover, in experiment [1] (setting [5]), the “AT CL (atrial tachycardia cycle length)” value worked out at 47.0 ± 7.2 ms, the “Duration AT” value came out at 0.148 ± 0.110 s, the “Duration VT” value is 0.89 ± 1.07 s and the “VT CL (ventricular tachycardia cycle length)” value is 50.4 ± 8.6 ms. Besides, the “Mice in which atrial programmed electrical stimulation induced atrial arrhythmia” value in experiment [1] (TSA-Hop^Tg mice vs 9 of 11 Hop^Tg mice, P<0.01) is 2 of 10. In experiment [1] (TSA-Hop^Tg mice vs Hop^Tg mice, P<0.05), the “Mice in which ventricular programmed electrical stimulation induced ventricular tachycardia” value was 2 of 10. Moreover, in experiment [1] (TSA-treated Hop transgenic mice vs untreated), the “Atrial arrhythmia inducibility (in words)” value is on record as “complete reversal of atrial arrhythmia inducibility”. In experiment [1] (TSA-treated Hop^Tg mice vs untreated), the “Duration and episodes of atrial fibrillation (in words)” value is “reduced”. In addition, the “Atrial fibrosis (in words)” value in experiment [2] (listed as Trichostatin A) is “reduced”. Also, in experiment [2] (listed as trichostatin A), the “Atrial fibrosis (in words)” value is “complete reversal of atrial fibrosis”. In addition, in experiment [2] (three groups incl. TSA-Hop), the “Ventricular interstitial fibrosis (in words)” value is given as “no obvious ventricular interstitial fibrosis”. For the same compound, the “Phospho-ERK1/2 protein expression in atrium” value with phospho-ERK1/2 is “increased”.
